Like-named read-outs stand apart in the source and are kept apart here.
How the values were obtained:
[1] = target: mouse cold-menthol receptor TRPM8 (Mus musculus, UniProt Q8R4D5); conditions: described by Behrendt et al.; cited from earlier work
TRPM8 [2] = target: TRPM8 (Mus musculus, UniProt Q8R4D5); conditions: TRPV1 antagonists, described by Behrendt et al.; read-out: IC50 to block the response of TRPM8 to menthol; cited from earlier work
TRPM8 [3] = target: T1, TRPM8 (Homo sapiens, UniProt Q7Z2W7); assay: TRPM8 Human Transient Potential Ion Channel Cell Based Agonist Calcium Flux Assay (Eurofins Cerep item #3316); conditions: for Emax: control activator ligand icilin, read-out: Percent Agonist; for EC50: room temperature
T1 construct: purchased Eurofins (Cerep) item #3316
Text: Compounds can be tested using the commercially available kit from Eurofins “TRPM8 Human Transient Potential Ion Channel Cell Based Agonist Calcium Flux Assay, Cerep” item #3316, or using the assay, referenced by Eurofins, and described in Behrendt et al. “Characterization of the mouse cold-menthol receptor TRPM8 and vanilloid receptor type-1 VR1 using a fluorometric imaging plate reader (FLIPR) assay,” Br J Pharmacol. 2004 Feb;141(4):737-45, which are each incorporated herein by reference. […] 4.
The assay is done at room temperature and measures calcium flux.

TRPM8 [4] = target: T1, TRPM8; conditions: reported by the Eurofins website; cited from earlier work

T1 sequence (Q7Z2W7 whole entry): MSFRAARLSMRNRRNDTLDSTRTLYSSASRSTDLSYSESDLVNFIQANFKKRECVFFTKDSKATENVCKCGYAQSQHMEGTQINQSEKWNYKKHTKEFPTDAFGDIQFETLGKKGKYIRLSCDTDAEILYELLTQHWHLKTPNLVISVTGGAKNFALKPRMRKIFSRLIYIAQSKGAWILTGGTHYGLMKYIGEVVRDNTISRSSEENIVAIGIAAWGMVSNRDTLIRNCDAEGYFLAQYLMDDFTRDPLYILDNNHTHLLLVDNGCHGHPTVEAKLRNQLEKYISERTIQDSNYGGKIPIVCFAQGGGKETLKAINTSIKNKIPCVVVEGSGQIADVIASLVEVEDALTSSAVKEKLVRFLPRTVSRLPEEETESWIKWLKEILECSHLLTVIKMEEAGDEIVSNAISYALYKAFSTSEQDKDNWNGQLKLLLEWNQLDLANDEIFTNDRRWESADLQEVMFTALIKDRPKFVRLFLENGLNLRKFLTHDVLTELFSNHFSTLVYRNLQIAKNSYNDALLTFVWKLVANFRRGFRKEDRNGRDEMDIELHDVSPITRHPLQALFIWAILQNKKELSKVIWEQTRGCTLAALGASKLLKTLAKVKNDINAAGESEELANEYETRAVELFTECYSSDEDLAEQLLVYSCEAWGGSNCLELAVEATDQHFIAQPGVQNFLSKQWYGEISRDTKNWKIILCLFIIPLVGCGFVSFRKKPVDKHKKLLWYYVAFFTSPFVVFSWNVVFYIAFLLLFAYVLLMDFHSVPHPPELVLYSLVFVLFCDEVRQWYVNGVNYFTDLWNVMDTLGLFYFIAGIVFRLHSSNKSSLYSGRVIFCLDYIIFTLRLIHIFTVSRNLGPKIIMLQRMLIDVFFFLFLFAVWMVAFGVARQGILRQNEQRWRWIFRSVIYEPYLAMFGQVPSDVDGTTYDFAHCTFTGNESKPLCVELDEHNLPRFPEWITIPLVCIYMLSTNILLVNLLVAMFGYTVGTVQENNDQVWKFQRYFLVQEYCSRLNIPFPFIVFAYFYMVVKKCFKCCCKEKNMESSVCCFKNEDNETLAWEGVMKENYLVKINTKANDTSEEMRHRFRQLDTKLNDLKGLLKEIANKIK
Chain of TRPM8 (Mus musculus, UniProt Q8R4D5) (Q8R4D5 whole entry): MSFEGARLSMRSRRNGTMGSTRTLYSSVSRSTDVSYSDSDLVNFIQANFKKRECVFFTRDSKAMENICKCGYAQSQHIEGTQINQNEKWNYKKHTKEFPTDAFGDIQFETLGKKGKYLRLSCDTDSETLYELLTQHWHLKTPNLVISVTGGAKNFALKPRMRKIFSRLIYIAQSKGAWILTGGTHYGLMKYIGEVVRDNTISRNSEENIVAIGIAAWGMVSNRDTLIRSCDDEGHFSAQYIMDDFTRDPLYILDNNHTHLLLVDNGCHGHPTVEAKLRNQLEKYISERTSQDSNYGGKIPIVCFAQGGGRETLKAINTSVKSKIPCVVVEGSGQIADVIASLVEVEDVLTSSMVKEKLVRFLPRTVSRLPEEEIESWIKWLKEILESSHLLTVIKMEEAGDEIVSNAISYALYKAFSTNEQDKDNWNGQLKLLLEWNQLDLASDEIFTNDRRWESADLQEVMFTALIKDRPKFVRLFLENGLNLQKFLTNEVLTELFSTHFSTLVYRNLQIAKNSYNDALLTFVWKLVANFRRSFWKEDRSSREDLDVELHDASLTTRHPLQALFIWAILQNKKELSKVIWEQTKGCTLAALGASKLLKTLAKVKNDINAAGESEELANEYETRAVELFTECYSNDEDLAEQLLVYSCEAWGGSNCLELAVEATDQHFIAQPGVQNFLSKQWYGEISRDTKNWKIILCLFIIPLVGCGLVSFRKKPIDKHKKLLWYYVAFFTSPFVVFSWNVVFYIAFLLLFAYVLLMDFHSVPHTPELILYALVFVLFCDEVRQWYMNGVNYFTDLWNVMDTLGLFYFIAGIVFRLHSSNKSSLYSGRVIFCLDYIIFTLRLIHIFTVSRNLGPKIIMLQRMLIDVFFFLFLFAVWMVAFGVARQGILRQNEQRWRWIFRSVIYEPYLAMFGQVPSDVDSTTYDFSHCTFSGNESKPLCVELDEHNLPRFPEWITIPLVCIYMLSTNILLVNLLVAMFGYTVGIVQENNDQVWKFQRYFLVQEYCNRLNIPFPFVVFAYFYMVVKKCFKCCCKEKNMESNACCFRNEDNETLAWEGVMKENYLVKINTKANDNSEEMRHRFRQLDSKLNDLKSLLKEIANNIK
Chain of mouse cold-menthol receptor TRPM8 (Q8R4D5 whole entry): as above

Row | Emax (TRPM8 [3]) | EC50 (TRPM8 [3]) | Structure (SMILES) | also measured
1 | – | – | CC(C)[C@H]1CC[C@H](C)C[C@@H]1O [(+)menthol] | EC50 [1]: 14.4 ± 1.3 µM
2 | – | – | CC(C)[C@@H]1CC[C@@H](C)C[C@H]1O [(−)menthol] | EC50 [1]: 4.1 ± 1.3 µM
3 | – | – | CC(C)(C)c1ccc(NC(=O)N2CCN(c3ncccc3Cl)CC2)cc1 [BCTC, 4-(3-Chloro-2-pyridinyl)-N-[4-(1,1-dimethylethyl)phenyl]-1-piperazinecarboxamide] | IC50 (TRPM8 [2]): 0.8 ± 1 µM
4 | > 75% | < 1 µM | CC(C)[C@@H]1CC[C@@H](C)C[C@H]1C(=O)NC12CCC(C(F)(F)F)(CC1)C2 [Compound 59] | –
5 | > 75% | < 0.1 µM | CNC(=O)c1cc(OC)ccc1NC(=O)[C@@H]1C[C@H](C)CC[C@H]1C(C)C [Compound 61] | –
6 | > 75% | < 0.5 µM | COC(=O)c1cc(NC(=O)[C@@H]2C[C@H](C)CC[C@H]2C(C)C)sn1 [Compound 62] | –
7 | – | > 10 µM | CC(C)[C@@H]1CC[C@@H](C)C[C@H]1C(=O)Nc1cc(C(=O)O)ns1 [Compound 64] | –
8 | > 50% | < 1 µM | CC(C)[C@@H]1CC[C@@H](C)C[C@H]1C(=O)Nc1ccccc1CN(C)C [Compound 65] | –
9 | > 75% | < 0.1 µM | CC(C)[C@@H]1CC[C@@H](C)C[C@H]1C(=O)Nc1ccccc1CCN [Compound 67] | –
10 | > 75% | < 7.5 µM | COC(=O)Cn1cc(NC(=O)[C@@H]2C[C@H](C)CC[C@H]2C(C)C)cn1 [Compound 68] | –
11 | > 75% | – | CC(C)[C@@H]1CC[C@@H](C)C[C@H]1C(=O)NC(=N)N [Compound 69] | EC50 (TRPM8 [3]; no unit printed in this row): < 10 µM
12 | > 75% | < 1 µM | CC(C)[C@@H]1CC[C@@H](C)C[C@H]1C(=O)Nc1cnn(CCO)c1 [Compound 70] | –
13 | > 75% | < 5 µM | COC(=O)c1cc(NC(=O)[C@@H]2C[C@H](C)CC[C@H]2C(C)C)ccn1 [Compound 72] | –
14 | > 50% | < 0.1 µM | CC(C)[C@@H]1CC[C@@H](C)C[C@H]1C(=O)Nc1ccc(N2CCOCC2)nc1 [Compound 73] | –
15 | > 50% | < 0.1 µM | COc1ccc(NC(=O)[C@@H]2C[C@H](C)CC[C@H]2C(C)C)cn1 [Compound 74] | –
16 | > 75% | < 5 µM | COc1ccc(NC(=O)[C@@H]2C[C@H](C)CC[C@H]2C(C)C)nc1Cl [Compound 75] | –
17 | > 50% | < 0.1 µM | CCOc1ccc(NC(=O)[C@@H]2C[C@H](C)CC[C@H]2C(C)C)cn1 [Compound 76] | –
18 | > 50% | < 5 µM | CC(C)[C@@H]1CC[C@@H](C)C[C@H]1C(=O)Nc1ccnc(CN(C)C)c1 [Compound 77] | –
19 | > 75% | < 0.5 µM | COC(=O)c1ccc(NC(=O)[C@@H]2C[C@H](C)CC[C@H]2C(C)C)cn1 [Compound 78] | –
20 | > 75% | < 2 µM | CC(C)[C@@H]1CC[C@@H](C)C[C@H]1C(=O)Nc1ccc(B2OC(C)(C)C(C)(C)O2)cn1 [Compound 79] | –

Row | Emax (TRPM8 [3]) | EC50 (TRPM8 [3]) | Structure (SMILES) | also measured
21 | > 75% | < 1 µM | CC(C)[C@@H]1CC[C@@H](C)C[C@H]1C(=O)Nc1cncc(Cl)c1 [Compound 80] | –
22 | > 100% | < 0.1 µM | COc1ccc(NC(=O)[C@@H]2C[C@H](C)CC[C@H]2C(C)C)c(F)n1 [Compound 81] | –
23 | > 75% | < 0.5 µM | COc1ncc(NC(=O)[C@@H]2C[C@H](C)CC[C@H]2C(C)C)cc1F [Compound 82] | –
24 | > 75% | < 5 µM | CC(C)[C@@H]1CC[C@@H](C)C[C@H]1C(=O)Nc1ccncn1 [Compound 83] | –
25 | > 75% | < 0.1 µM | CC(C)[C@@H]1CC[C@@H](C)C[C@H]1C(=O)Nc1ccc(S(C)(=O)=O)nc1 [Compound 84] | –
26 | > 100% | < 5 µM | CC(C)[C@@H]1CC[C@@H](C)C[C@H]1C(=O)Nc1ccc(Cl)cn1 [Compound 86] | –
27 | > 35% | < 5 µM | COc1ncc(NC(=O)[C@@H]2C[C@H](C)CC[C@H]2C(C)C)cc1C [Compound 88] | –
28 | > 75% | < 1 µM | CC(C)[C@@H]1CC[C@@H](C)C[C@H]1C(=O)NCC1CC1(F)F (some centres unmarked) [Compound 89] | –
29 | > 75% | < 1 µM | CC(C)[C@@H]1CC[C@@H](C)C[C@H]1C(=O)NCCC1CC1(F)F (some centres unmarked) [Compound 91] | –
30 | > 75% | < 10 µM | CC(C)[C@@H]1CC[C@@H](C)C[C@H]1C(=O)NCC1(C#N)CC1 [Compound 93] | –
31 | > 75% | < 0.5 µM | CC(C)[C@@H]1CC[C@@H](C)C[C@H]1C(=O)N[C@H]1CCC(F)(F)C1 [Compound 94] | –
32 | – | > 10 µM | CC(C)[C@@H]1CC[C@@H](C)C[C@H]1C(=O)N1CC(C)(CC(F)F)C1 [Compound 95] | –
33 | – | > 10 µM | CC(C)[C@@H]1CC[C@@H](C)C[C@H]1C(=O)NCC#N [Compound 97] | –
34 | > 75% | < 0.5 µM | CC(C)[C@@H]1CC[C@@H](C)C[C@H]1C(=O)N[C@@H]1CCC(F)(F)C1 [Compound 98] | –
35 | > 75% | < 10 µM | CC(C)[C@@H]1CC[C@@H](C)C[C@H]1C(=O)NCCC#N [Compound 99] | –
36 | > 35% | – | CC(C)[C@@H]1CC[C@@H](C)C[C@H]1C(=O)NN1CCOCC1 [Compound 100] | –
37 | > 75% | < 5 µM | C#CCNC(=O)[C@@H]1C[C@H](C)CC[C@H]1C(C)C [Compound 101] | –
38 | > 50% | < 10 µM | CC(C)[C@@H]1CC[C@@H](C)C[C@H]1C(=O)NC1CCC(S(C)(=O)=O)C1 (some centres unmarked) [Compound 106] | –
39 | > 100% | < 0.5 µM | C=C(C)[C@@H]1CC[C@@H](C)C[C@H]1C(=O)Nc1ccc(OC)cc1 [Compound 107] | –
40 | > 5% | > 10 µM | COc1ccc(NC(=O)[C@@H]2C[C@H](C)CC[C@H]2C(C)=O)cc1 [Compound 108] | –

Row | Emax (TRPM8 [3]) | EC50 (TRPM8 [3]) | Structure (SMILES) | also measured
41 | > 75% | < 5 µM | COC(=O)C12CC(NC(=O)c3cc(C)ccc3C(C)C)(C1)C2 [Compound 170] | –
42 | – | > 10 µM | COC12CCC(NC(=O)[C@H]3CCC[C@@H](N)C3)(CC1)CC2 [Compound 171] | –
43 | > 100% | < 3 µM | COC12CCC(NC(=O)c3cc(Cl)ccc3C(C)C)(CC1)CC2 [Compound 172] | –
44 | – | > 10 µM | COC12CCC(NC(=O)[C@H]3CCC[C@@H](NC(C)=O)C3)(CC1)CC2 [Compound 173] | –
45 | – | > 10 µM | COc1ccc(NC(=O)c2cccc(C(F)(F)F)c2)cc1 [Compound 174] | –
46 | – | > 10 µM | COc1ccc(NC(=O)[C@H]2CCC[C@@H](O)C2)cc1 [Compound 177] | –
47 | – | – | C=C(C)[C@@H]1CC[C@@H](C)C[C@H]1O [Coolact P] | EC50 [1]: 66 ± 20 µM
48 | – | – | CC(O)C(=O)O[C@@H]1C[C@H](C)CC[C@H]1C(C)C (some centres unmarked) [FrescolatML] | EC50 [1]: 3.3 ± 1.5 µM
49 | – | – | C[C@@H]1CC[C@@H](C(C)(C)O)[C@H](O)C1 [PMD38] | EC50 [1]: 31 ± 1.1 µM
50 | – | – | CCNC(=O)C1CC(C)CCC1C(C)C (centres unmarked) [WS-3] | EC50 [1]: 3.7 ± 1.7 µM
51 | – | – | CNC(=O)C(C)(C(C)C)C(C)C [WS-23] | EC50 [1]: 44 ± 7.3 µM
52 | – | – | Oc1cc2c(cc1O)CN(C(=S)NCCc1ccc(Cl)cc1)CCC2 [capsazepine] | IC50 (TRPM8 [2]): 18 ± 1.1 µM
53 | – | – | CC1CCC(C(C)C)C(OCC(O)CO)C1 (centres unmarked) [cooling agent 10] | EC50 [1]: 6 ± 2.2 µM
54 | – | – | CC12CCC(CC1)C(C)(C)O2 [eucalyptol] | EC50 [1]: 7700 ± 2000 µM
55 | – | – | CC1CCC(C(C)C)C2(C1)OCC(CO)O2 (centres unmarked) [frescolatMAG] | EC50 [1]: 4.8 ± 1.1 µM
56 | – | – | CC(C)=CCC/C(C)=C/CO [geraniol] | EC50 [1]: 5900 ± 1600 µM
57 | – | – | CC(CC=O)CCCC(C)(C)O (centres unmarked) [hydroxycitronellal] | EC50 [1]: 19600 ± 2200 µM
58 | – | – | O=C1NC(c2cccc([N+](=O)[O-])c2)=CCN1c1ccccc1O [icilin] | EC50 (TRPM8 [4]): 0.028 µM
59 | – | – | C=CC(C)(O)CCC=C(C)C (centres unmarked) [linalool] | EC50 [1]: 6700 ± 2000 µM
60 | – | – | CC(C)(C)c1ccc(NC(=S)N2CCN(c3ncccc3Cl)CC2)cc1 [thio-BCTC] | IC50 (TRPM8 [2]): 3.5 ± 1.1 µM
